From ChEMBL document CHEMBL1201862, “PubChem BioAssay data set” (2004)
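Method: 48-hour compound exposure of cells in 96-well plates, five concentrations, linear interpolation of endpoints. GI50 is the concentration that inhibits growth by half.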 The source made the active and inactive calls. No stated cut-off is given here; in the data, active = GI50 up to about 1.1 µM and inactive = higher.

Assays:
Assay in all cases: NCI-60 cell line screen, 48 h
HOP-62 = test system: HOP-62
HCT-116 = test system: HCT-116
MDA-MB-435 = test system: MDA-MB-435
SW-620 = test system: SW-620
HCT-15 = test system: HCT-15
MCF7 = test system: MCF7
SF-539 = test system: SF-539
UACC-62 = test system: UACC-62
SR = test system: SR
NCI-H460 = test system: NCI-H460
COLO 205 = test system: COLO 205
A498 = test system: A498
SNB-19 = test system: SNB-19
HT-29 = test system: HT-29
MOLT-4 = test system: MOLT-4
K562 = test system: K562
NCI-H522 = test system: NCI-H522
SF-295 = test system: SF-295
RXF 393 = test system: RXF 393
SF-268 = test system: SF-268

Structure (SMILES)	GI50 (HOP-62)	GI50 (HCT-116)	GI50 (MDA-MB-435)	GI50 (SW-620)	GI50 (HCT-15) [µM]	GI50 (MCF7)	GI50 (SF-539)	GI50 (UACC-62)	GI50 (SR)	GI50 (NCI-H460)	GI50 (COLO 205)	GI50 (A498)	GI50 (SNB-19)	GI50 (HT-29)	GI50 (MOLT-4)	GI50 (K562)	GI50 (NCI-H522)	GI50 (SF-295)	GI50 (RXF 393)	GI50 (SF-268)
O=C(O)CN1CCNCCNCC1	> 100 µM (inactive)	> 100 µM (inactive)	> 100 µM (inactive)	> 100 µM (inactive)	> 100	> 100 µM (inactive)	> 100 µM (inactive)	> 100 µM (inactive)	> 100 µM (inactive)	> 100 µM (inactive)	> 100 µM (inactive)	> 100 µM (inactive)	> 100 µM (inactive)	> 100 µM (inactive)	> 100 µM (inactive)	> 100 µM (inactive)	–	–	–	–
OCC(O)COCn1cc(Cn2ncc3c(O)ncnc32)nn1 (centres undefined)	> 100 µM (inactive)	> 100 µM (inactive)	> 100 µM (inactive)	> 100 µM (inactive)	> 100	> 100 µM (inactive)	> 100 µM (inactive)	> 100 µM (inactive)	> 100 µM (inactive)	–	> 100 µM (inactive)	> 100 µM (inactive)	> 100 µM (inactive)	> 100 µM (inactive)	> 100 µM (inactive)	> 100 µM (inactive)	28.5 µM (inactive)	> 100 µM (inactive)	–	–
CN(C)CCCNC(CC#N)CCC#N (centres undefined)	> 10 µM (inactive)	> 10 µM (inactive)	> 10 µM (inactive)	> 10 µM (inactive)	> 10	> 10 µM (inactive)	> 10 µM (inactive)	> 10 µM (inactive)	–	> 10 µM (inactive)	> 10 µM (inactive)	> 10 µM (inactive)	> 10 µM (inactive)	> 10 µM (inactive)	> 10 µM (inactive)	> 10 µM (inactive)	> 10 µM (inactive)	> 10 µM (inactive)	> 10 µM (inactive)	> 10 µM (inactive)
C[C@]12CC[C@H]3[C@@H](CCC4=CC(=O)CC[C@@]43C)[C@@H]1CC[C@@H]2C(=O)Nc1ccc([N+](=O)[O-])c(C(F)(F)F)c1	29 µM (inactive)	17.5 µM (inactive)	18 µM (inactive)	20.9 µM (inactive)	12	16.3 µM (inactive)	18.7 µM (inactive)	15.3 µM (inactive)	23.7 µM (inactive)	17.3 µM (inactive)	18.2 µM (inactive)	17.6 µM (inactive)	18.5 µM (inactive)	18.2 µM (inactive)	24.2 µM (inactive)	26.6 µM (inactive)	17.2 µM (inactive)	17.1 µM (inactive)	–	21.4 µM (inactive)
O=C(CC(C(=O)c1cccs1)c1ccsc1)c1ccc(Cl)cc1 (centres undefined)	> 100 µM (inactive)	> 100 µM (inactive)	> 100 µM (inactive)	> 100 µM (inactive)	> 100	> 100 µM (inactive)	> 100 µM (inactive)	> 100 µM (inactive)	> 100 µM (inactive)	> 100 µM (inactive)	> 100 µM (inactive)	> 100 µM (inactive)	> 100 µM (inactive)	> 100 µM (inactive)	> 100 µM (inactive)	> 100 µM (inactive)	–	> 100 µM (inactive)	–	> 100 µM (inactive)
Fc1cccc(F)c1C1SCc2nc3cc4ccccc4cc3n21 (centres undefined)	95.9 µM (inactive)	47 µM (inactive)	49.9 µM (inactive)	49 µM (inactive)	16	47.2 µM (inactive)	17.2 µM (inactive)	23.4 µM (inactive)	17.5 µM (inactive)	–	31.2 µM (inactive)	21.2 µM (inactive)	–	20.2 µM (inactive)	15.3 µM (inactive)	12.1 µM (inactive)	–	29.7 µM (inactive)	28.4 µM (inactive)	52.2 µM (inactive)
O=C(Nc1cccc2ccccc12)c1cc2ccccc2oc1=O	14.5 µM (inactive)	36.8 µM (inactive)	> 100 µM (inactive)	> 100 µM (inactive)	> 100	> 100 µM (inactive)	14.6 µM (inactive)	> 100 µM (inactive)	> 100 µM (inactive)	> 100 µM (inactive)	> 100 µM (inactive)	47.9 µM (inactive)	22 µM (inactive)	28.1 µM (inactive)	> 100 µM (inactive)	> 100 µM (inactive)	–	–	22.6 µM (inactive)	23.3 µM (inactive)
O=c1[nH]nc(-c2ccccc2)c2[nH]c3c(c12)CCCc1ccccc1-3	19.3 µM (inactive)	13.2 µM (inactive)	13 µM (inactive)	19.1 µM (inactive)	2.34	19.6 µM (inactive)	17.2 µM (inactive)	11.7 µM (inactive)	15.1 µM (inactive)	16 µM (inactive)	9.79 µM (inactive)	–	10.7 µM (inactive)	11.3 µM (inactive)	10.9 µM (inactive)	12.8 µM (inactive)	7.69 µM (inactive)	20.7 µM (inactive)	15.6 µM (inactive)	24.9 µM (inactive)
CC1=CC(=O)/C(=C(/C)NCCN(CCN/C(C)=C2\C(=O)C=C(C)OC2=O)CCN/C(C)=C2\C(=O)C=C(C)OC2=O)C(=O)O1	> 100 µM (inactive)	> 100 µM (inactive)	> 100 µM (inactive)	> 100 µM (inactive)	> 100	> 100 µM (inactive)	> 100 µM (inactive)	–	> 100 µM (inactive)	> 100 µM (inactive)	> 100 µM (inactive)	–	> 100 µM (inactive)	> 100 µM (inactive)	> 100 µM (inactive)	> 100 µM (inactive)	> 100 µM (inactive)	> 100 µM (inactive)	–	> 100 µM (inactive)
COc1cc(N(Cc2ccc3nc(OC)c(OC)nc3c2)Cc2ccc3nc(OC)c(OC)nc3c2)cc(OC)c1OC	1.3 µM (inactive)	33.2 µM (inactive)	> 50 µM (inactive)	> 50 µM (inactive)	> 50	32.9 µM (inactive)	26.3 µM (inactive)	> 50 µM (inactive)	> 50 µM (inactive)	–	> 50 µM (inactive)	–	14.9 µM (inactive)	> 50 µM (inactive)	> 50 µM (inactive)	–	> 50 µM (inactive)	19.6 µM (inactive)	10.7 µM (inactive)	32.1 µM (inactive)
NS(=O)(=O)c1nnc(NS(=O)(=O)c2ccc(F)cc2)s1	> 100 µM (inactive)	> 100 µM (inactive)	> 100 µM (inactive)	> 100 µM (inactive)	> 100	> 100 µM (inactive)	> 100 µM (inactive)	> 100 µM (inactive)	> 100 µM (inactive)	> 100 µM (inactive)	> 100 µM (inactive)	> 100 µM (inactive)	> 100 µM (inactive)	–	> 100 µM (inactive)	> 100 µM (inactive)	–	> 100 µM (inactive)	> 100 µM (inactive)	> 100 µM (inactive)
CC(=O)N1C(c2[nH]c3ccccc3c2-c2ccccc2)CCN1c1ccccc1 (centres undefined)	> 10 µM (inactive)	> 10 µM (inactive)	> 10 µM (inactive)	> 10 µM (inactive)	> 10	> 10 µM (inactive)	> 10 µM (inactive)	–	> 10 µM (inactive)	> 10 µM (inactive)	> 10 µM (inactive)	–	> 10 µM (inactive)	> 10 µM (inactive)	> 10 µM (inactive)	9.18 µM (inactive)	> 10 µM (inactive)	> 10 µM (inactive)	> 10 µM (inactive)	> 10 µM (inactive)
CCCCCCCCCCCCCCCCOCC(COP(=O)([O-])OCC[n+]1ccc(N(C)C)cc1)OCC (centres undefined)	12.3 µM (inactive)	11.3 µM (inactive)	17.7 µM (inactive)	18.3 µM (inactive)	18.2	19.2 µM (inactive)	13.5 µM (inactive)	12.7 µM (inactive)	4.95 µM (inactive)	12.1 µM (inactive)	13.6 µM (inactive)	–	2.8 µM (inactive)	13.9 µM (inactive)	4.52 µM (inactive)	19.3 µM (inactive)	12.8 µM (inactive)	16.5 µM (inactive)	16.3 µM (inactive)	10.8 µM (inactive)
CC(=O)C12C[C@](C#N)(N3CCCCCC3)C1C=Cc1ccccc12 (some centres undefined)	> 100 µM (inactive)	> 100 µM (inactive)	> 100 µM (inactive)	> 100 µM (inactive)	> 100	> 100 µM (inactive)	> 100 µM (inactive)	> 100 µM (inactive)	> 100 µM (inactive)	> 100 µM (inactive)	> 100 µM (inactive)	–	> 100 µM (inactive)	> 100 µM (inactive)	> 100 µM (inactive)	> 100 µM (inactive)	> 100 µM (inactive)	> 100 µM (inactive)	> 100 µM (inactive)	> 100 µM (inactive)
COc1c(O)cc2c(c1O)C1O[C@H](CO)C(O)[C@H](O)[C@H]1OC2=O (some centres undefined)	> 100 µM (inactive)	> 100 µM (inactive)	> 100 µM (inactive)	> 100 µM (inactive)	> 100	> 100 µM (inactive)	> 100 µM (inactive)	–	> 100 µM (inactive)	> 100 µM (inactive)	> 100 µM (inactive)	–	> 100 µM (inactive)	> 100 µM (inactive)	> 100 µM (inactive)	> 100 µM (inactive)	> 100 µM (inactive)	> 100 µM (inactive)	> 100 µM (inactive)	> 100 µM (inactive)
